Source: ChEMBL document CHEMBL5724914, “Linking interpersonal differences in gut microbiota composition and drug biotransformation activity” (2024)

Tests used:
[1] = human gut metagenome, 24 h, 2 µM
[2] = human gut metagenome, 24 h, 2 µM; remark: listed apart in the source
[3] = (§1) The drug is tested on WLS-006 corresponding to human gut metagenome with ENA study accession number: PRJEB37062 and ENA sample accession number: ERS12561741 for biotransformation under anaerobic condition. The drug concentrations were measured over 9 timepoints collected between 0 and 24 hours of incubation by liquid-chromatography-coupled mass spectrometry (LC–MS); details: 2 µM
[4] = human gut metagenome, 24 h, 2 µM; remark: listed apart in the source
[5] = as §1, with “WLS-027” for “WLS-006”, “ERS12561744” for “ERS12561741”; details: 2 µM
[6] = human gut metagenome, 24 h, 2 µM; remark: listed apart in the source
[7] = as §1, with “WLS-220” for “WLS-006”, “ERS12561769” for “ERS12561741”; details: 2 µM
[8] = human gut metagenome, 24 h, 2 µM; remark: listed apart in the source
[9] = as §1, with “WLS-010” for “WLS-006”, “ERS12561743” for “ERS12561741”; details: 2 µM
Also: call rule not given here.

SMILES	Bacterial Biotransformation [1]	Bacterial Biotransformation [2]	Bacterial Biotransformation [3]	Bacterial Biotransformation [4]	Bacterial Biotransformation [5]	Bacterial Biotransformation [6]	Bacterial Biotransformation [7]	Bacterial Biotransformation [8]	Bacterial Biotransformation [9]
C[C@@H](c1ncncc1F)[C@](O)(Cn1cncn1)c1ccc(F)cc1F [VORICONAZOLE]	Compound metabolized	Compound metabolized	Compound metabolized	Compound metabolized	Compound metabolized	Compound metabolized	Compound metabolized	Compound metabolized	Compound metabolized
CC(CCc1ccccc1)NCC(O)c1ccc(O)c(C(N)=O)c1 (stereo unspecified) [LABETALOL]	Compound metabolized	Compound NOT metabolized	Compound NOT metabolized	Compound NOT metabolized	Compound NOT metabolized	Compound NOT metabolized	Compound NOT metabolized	Compound NOT metabolized	Compound NOT metabolized
O=C(NC(Cc1cc(=O)[nH]c2ccccc12)C(=O)O)c1ccc(Cl)cc1 (stereo unspecified) [REBAMIPIDE]	Compound NOT metabolized	Compound NOT metabolized	Compound NOT metabolized	Compound metabolized	Compound NOT metabolized	Compound metabolized	Compound NOT metabolized	Compound metabolized	Compound metabolized
OC(c1cc(C(F)(F)F)nc2c(C(F)(F)F)cccc12)C1CCCCN1 (stereo unspecified) [MEFLOQUINE]	Compound metabolized	Compound NOT metabolized	Compound metabolized	Compound metabolized	Compound metabolized	Compound NOT metabolized	Compound metabolized	Compound metabolized	Compound metabolized
CN1CCC[C@@H]1CCO[C@](C)(c1ccccc1)c1ccc(Cl)cc1.O=C(O)/C=C/C(=O)O [CLEMASTINE FUMARATE]	Compound NOT metabolized	Compound NOT metabolized	Compound NOT metabolized	Compound metabolized	Compound metabolized	Compound NOT metabolized	Compound NOT metabolized	Compound metabolized	Compound NOT metabolized
COC1=C(OC)C(=O)C(CCCCCCCCCCO)=C(C)C1=O [IDEBENONE]	Compound metabolized				Compound metabolized	Compound metabolized		Compound metabolized	Compound metabolized
CC(=O)O[C@H]1C(=O)[C@@]2(C)[C@H]([C@H](OC(=O)c3ccccc3)[C@]3(O)C[C@H](OC(=O)[C@H](O)[C@@H](NC(=O)c4ccccc4)c4ccccc4)C(C)=C1C3(C)C)[C@]1(OC(C)=O)CO[C@@H]1C[C@@H]2O [PACLITAXEL]	Compound NOT metabolized	Compound metabolized	Compound metabolized	Compound metabolized	Compound metabolized	Compound NOT metabolized	Compound NOT metabolized		Compound metabolized
CC(C)C[C@H]1C(=O)N2CCC[C@H]2[C@]2(O)O[C@](NC(=O)[C@@H]3C=C4c5cccc6[nH]c(Br)c(c56)C[C@H]4N(C)C3)(C(C)C)C(=O)N12.CS(=O)(=O)O [BROMOCRIPTINE MESYLATE]			Compound metabolized	Compound NOT metabolized	Compound metabolized	Compound metabolized	Compound metabolized		Compound metabolized
CN[C@H]1CC[C@@H](c2ccc(Cl)c(Cl)c2)c2ccccc21 [SERTRALINE]	Compound metabolized	Compound NOT metabolized	Compound metabolized	Compound metabolized	Compound metabolized	Compound metabolized	Compound metabolized	Compound metabolized	
CN1[C@@H]2CC[C@H]1C[C@@H](OC(=O)[C@H](CO)c1ccccc1)C2 [HYOSCYAMINE]	Compound metabolized				Compound NOT metabolized				
CC(=O)OCC(=O)NCCCOc1cccc(CN2CCCCC2)c1 [ROXATIDINE ACETATE]	Compound metabolized	Compound metabolized		Compound metabolized		Compound metabolized	Compound metabolized	Compound metabolized	Compound metabolized
COc1ccc(/C=C/C(=O)Nc2ccccc2C(=O)O)cc1OC	Compound metabolized	Compound NOT metabolized	Compound NOT metabolized	Compound metabolized	Compound metabolized	Compound NOT metabolized	Compound NOT metabolized		Compound metabolized
CC(NC(C)(C)C)C(=O)c1cccc(Cl)c1 (stereo unspecified) [BUPROPION]	Compound NOT metabolized	Compound NOT metabolized	Compound metabolized	Compound metabolized	Compound NOT metabolized	Compound NOT metabolized	Compound NOT metabolized	Compound NOT metabolized	
CSc1ccc2c(c1)C(N1CCN(C)CC1)Cc1ccccc1S2.O=C(O)/C=C\C(=O)O (stereo unspecified)	Compound NOT metabolized	Compound NOT metabolized	Compound NOT metabolized	Compound NOT metabolized	Compound NOT metabolized	Compound NOT metabolized		Compound NOT metabolized	Compound metabolized
C#C[C@]1(OC(C)=O)CC[C@H]2[C@@H]3CCC4=CC(=O)CC[C@@H]4[C@H]3CC[C@@]21C [NORETHINDRONE ACETATE]		Compound metabolized		Compound metabolized	Compound metabolized	Compound metabolized		Compound metabolized	Compound metabolized
COc1cc(C(=O)NCc2ccc(OCCN(C)C)cc2)cc(OC)c1OC [TRIMETHOBENZAMIDE]		Compound NOT metabolized	Compound NOT metabolized	Compound NOT metabolized	Compound NOT metabolized	Compound NOT metabolized	Compound NOT metabolized	Compound NOT metabolized	Compound NOT metabolized
COc1cc(NC(C)CCCN)c2ncccc2c1.O=P(O)(O)O.O=P(O)(O)O (stereo unspecified) [PRIMAQUINE PHOSPHATE]	Compound metabolized	Compound metabolized		Compound NOT metabolized	Compound NOT metabolized	Compound NOT metabolized	Compound metabolized	Compound metabolized	
